{"source": "patent US20250223560A1", "about": "“NOX4 INHIBITOR COMPOSITIONS AND METHODS FOR REGENERATION OF DYSTROPHIC MUSCLE” (FULCRUM THERAPEUTICS, INC., priority 2022, published 2025)", "key": {"[1]": {"system": "D2.mdx mice", "experiment": "3-month GKT831 treatment of D2.mdx mice, muscle histology and immunofluorescence", "assay_type": "in vivo, mouse", "conditions": "60 mg/kg P.O. Q.D.", "source_text": "D2.mdx (Jax #013141) and D2.WT (Jax #000671) mice were originally obtained from Jackson Laboratory. The Nox4^KO:mdx mouse line was created by crossing the Nox4^tm1Klr knockout allele ((23); Jax #022996) onto the D2.mdx background for five generations, as previously reported (15). Following the second backcross, only Nox4^tm1Klr/+ mice homozygous for the DBA/2J polymorphism of […] were selected for continued line development (16). This is because both Nox4 and Ltbp4 are located on murine chromosome 7, and cross-over is required for both alleles to segregate together. At the completion of the backcrossing, Nox4 heterozygous breed pairs were mated to produce Nox4^WT:mdx and Nox4^KO:mdx littermates that were used in experiments. All mice were genotyped for Nox4 using primer sequences provided by Jackson Laboratory, and for Ltbp4 and mdx alleles using published genotyping primers (16).\n(§1) Mice were housed 3-5 mice per cage, randomly assigned into groups, provided ad libitum access to food (NIH-31 Open formulation diet; Envigo #7917), water, and enrichment, and maintained on a 12-hour light/dark system. Once daily (Q.D.) GKT831 (purchased from Ambeed, Inc.) was administered orally (P.O.) suspended at a concentration of 36 mg/mL in a vehicle consisting of sterilized sunflower seed oil (Sigma-Aldrich). […] The GKT831 treatment group received a dose of 60 mg/kg (21). All animal procedures were approved and conducted in accordance with the University of Florida IACUC and reported using the recommendations of ARRIVE guidelines.\n(§2) OCT-embedded murine tissues were cryo-sectioned at […] and fixed in 4% PFA. Immunofluorescent analysis was performed using anti-NOX4 (1:2000; Abcam #13303), anti-laminin (1:800; Novus #MAB2549), anti-vimentin (1:1000; Novus #MB300), anti-PDGFRα (1:500; R&D Systems #AF1062), anti-SMA (1:1000; Abcam #ab5694), anti-periostin (1:500, Abcam #ab14041), anti-Pax7 (1:100; R&D Systems #MAB1675), anti-Myosin X (1:800; Sigma #HPA024223) and anti-active caspase-3 (1:1000; Cell Signaling 49661) primary antibodies. Mouse tissue sections incubated with mouse monoclonal antibodies were first incubated with a solution containing donkey anti-mouse IgG AffiniPure Fab fragments (1:25 in PBS; Jackson ImmunoResearch #715-007-003) for one hour prior to blocking. Following overnight incubation in primary antibody, sections were rinsed with PBS and incubated with the appropriate species-specific secondary antibody (1:500 dilution). Lipofuscin-dependent autofluorescence was quenched using a 0.1% solution of Sudan black B following secondary antibody incubation. Slides were cover-slipped using Prolong Gold mounting reagent (Invitrogen). Images were acquired using a Leica SP8 confocal microscope. All comparative images were stained simultaneously and acquired using identical settings. Human samples were obtained through the National Disease Research Interchange (Philadelphia, PA).\nPicrosirius red staining was performed as previously described (14) following decalcification of muscle sections using Formical-2000 (StatLab). Slides were visualized with a Leica DMR microscope, and images were acquired using a Leica DFC310FX camera interfaced with Leica LAS X software. All comparative images were stained simultaneously and acquired using identical settings. Images were processed and analyzed by investigators blinded to study groups using ImageJ software, as previously described (14). Image quantification for each sample consisted of the mean value from five independent and randomly-selected fields of view for each muscle section."}, "[2]": {"system": "D2.mdx mice", "experiment": "Seven-day GKT831 treatment of six-month-old D2.mdx mice (apoptosis, gene expression)", "assay_type": "in vivo, mouse", "conditions": "gastrocnemius, 60 mg/kg, seven days, vs vehicle", "procedure": "as §1, §2\nGene expression analysis was conducted as previously described (17) using the following mouse-specific primers: Col1a2 (forward) 5′-ATGGTGGCAGCCAGTTTGAA-3′ (SEQ ID NO: 1) and (reverse) 5′-TCCAGGTACGCAATGCTGTT-3′ (SEQ ID NO: 2); Acta2 (forward) 5′-CTACTGCCGAGCGTGAGATTGTCC-3′ (SEQ ID NO: 3) and (reverse) 5′-GAGGGCCCAGCTTCGTCGTATT-3′ (SEQ ID NO: 4); 116 (forward) 5′-AACCACGGCCTTCCCTACTTC-3′ (SEQ ID NO: 5) and (reverse) 5′-TCTGGCTTTGTCTTTCTTGTTATC-3′ (SEQ ID NO: 6); Tgfb1 (forward) 5′-GACTCTCCACCTGCAAGACCAT-3′ (SEQ ID NO: 7) and (reverse) 5′-GGGACTGGCGAGCCTTAGTT-3′ (SEQ ID NO: 8); Gapdh (forward) 5′-AGCAGGCATCTGAGGGCCCA-3′ (SEQ ID NO: 9) and (reverse) 5′-TGTTGGGGGCCGAGTTGGGA-3′ (SEQ ID NO: 10). Relative gene expression quantification was performed using the ΔΔCt method with Gapdh as the normalization gene.\nBecause the presumed mechanism attributed to myofibroblast clearance has been that of promoting their apoptosis (20), a short-term study was performed to investigate acute changes in muscle that result from NOX4 inhibition."}}, "data": [{"smiles": "CN(C)c1cccc(-c2c3c(=O)n(-c4ccccc4Cl)[nH]c3cc(=O)n2C)c1", "note": "[FTX1620, Setanaxib]", "values": [{"measurement": "localization of Pax7 cells", "setting": "[1]; D2.mdx gastrocnemius, 3 months", "result": "largely re-localized"}, {"measurement": "muscle fibers having central nuclei", "setting": "[1]; D2.mdx gastrocnemius, 3 months", "result": "increases"}, {"measurement": "muscle fibers with expression of myosin X", "setting": "[1]; D2.mdx gastrocnemius, 3 months", "result": "increases"}, {"measurement": "myofibroblast numbers (PDGFRα, vimentin, SMA labeling)", "setting": "[1]; D2.mdx gastrocnemius, 3 months", "result": "significantly reduced"}, {"measurement": "muscle fibrosis (picrosirius red, diaphragm and gastrocnemius)", "setting": "[1]; D2.mdx mice, 3 months of treatment, evaluated at 6 months of age, vs vehicle", "result": "reduced D2.mdx muscle fibrosis"}, {"measurement": "periostin+ area", "setting": "[1]; D2.mdx muscle, 3 months", "result": "significantly reduced"}, {"measurement": "PDGFRα+ cells positive for active Caspase-3", "setting": "[2]", "result": "significantly more"}, {"measurement": "Acta2 expression", "setting": "[2]; real-time PCR", "result": "decreased expression"}, {"measurement": "Col1a2 expression", "setting": "[2]; real-time PCR", "result": "decreased expression"}, {"measurement": "Il6 expression", "setting": "[2]; real-time PCR", "result": "decreased expression"}, {"measurement": "Tgfb1 expression", "setting": "[2]; real-time PCR", "result": "decreased expression"}]}]}
